{
  "source": "patent US9221827B2",
  "about": "“Antimicrobial compounds and methods of making and using the same” (Melinta Therapeutics, Inc., priority 2011, dated 2015)",
  "data": [
    {"tested_on": "Escherichia coli strain ATCC25922", "test": "standard microdilution assay to determine minimum inhibitory concentrations (MICs)", "assay_type": "cell-based", "conditions": "Escherichia coli strain ATCC25922, microdilution", "protocol": "The in vitro activity of the compounds of the present invention can be determined. Antimicrobial testing is typically performed to determine the minimum inhibitory concentration (MIC). Minimum inhibitory concentrations (MICs) are determined by the microdilution method in a final volume of 100 μl according to protocols outlined by The Clinical and Laboratory Standards Institute (CLSI). Performance standards for reference strains are assessed within the same experimental design to maintain quality control. See, for example, Clinical Laboratory Standards Institute: Methods for dilution antimicrobial susceptibility tests for bacteria that grow aerobically M7-A8. Approved Standard-Eighth Edition. Wayne, Pa.: CLSI; December 2008; and Clinical Laboratory Standards Institute: Performance Standards for Antimicrobial Susceptibility Testing M100-S20; Approved Standard-Twentieth Edition. Wayne, Pa.: CLSI; June 2010.\nThe compounds of the present invention were tested for antimicrobial activity. […] The compounds were run against Escherichia coli strain ATCC25922 using a standard microdilution assay to determine minimum inhibitory concentrations (MICs). […] A “N/A” means that data is unavailable. It will be recognized by one skilled in the art that the compounds can be assessed against other bacterial organisms and that the presentation of data for activity against Escherichia coli is illustrative and in no way is intended to limit the scope of the present invention. The compounds of the present invention can be assayed against a range of other microorganisms depending upon the performance activity desired to be gathered. Furthermore, the “+”, “−”, and “N/A” representation and the selection of a cutoff value of 16 micrograms/ml is also illustrative and in no way is intended to limit the scope of the present invention.", "values": [
      {"smiles": "N=C(N)NCCCNCc1ccc(-n2cc3cc(-c4cc(CCCCN)cc(OC(F)(F)F)c4)[nH]c3nc2=O)cc1F", "note": "[Compound 39]", "E. coli ATCC25922 MIC": "+ (a “+” indicates that the compound has an MIC value of 16 micrograms/ml or less)"},
      {"smiles": "N=C(N)NCCCNCc1ccc(-n2cc3cc(-c4cc(CCCCN)cc(C5CCC5)c4)[nH]c3nc2=O)cc1", "note": "[Compound 40]", "E. coli ATCC25922 MIC": "+ (a “+” indicates that the compound has an MIC value of 16 micrograms/ml or less)"},
      {"smiles": "CC(=O)Nc1cc(CCCCN)cc(-c2cc3cn(-c4ccc(CNCCCNC(=N)N)cc4)c(=O)nc3[nH]2)c1", "note": "[Compound 41]", "E. coli ATCC25922 MIC": "+ (a “+” indicates that the compound has an MIC value of 16 micrograms/ml or less)"},
      {"smiles": "N=C(N)NCCCNCc1ccc(-n2cc3cc(-c4cc(OC(F)(F)F)cc(C(O)CCCN)c4)[nH]c3nc2=O)cc1", "note": "(centres unmarked) [Compound 42]", "E. coli ATCC25922 MIC": "+ (a “+” indicates that the compound has an MIC value of 16 micrograms/ml or less)"},
      {"smiles": "N=C(N)NCCCNCc1ccc(-n2cc3cc(-c4cc(Br)c(CC(O)CCN)c(OC(F)(F)F)c4)[nH]c3nc2=O)cc1", "note": "(centres unmarked) [Compound 43]", "E. coli ATCC25922 MIC": "+ (a “+” indicates that the compound has an MIC value of 16 micrograms/ml or less)"},
      {"smiles": "COc1c(CCCCN)cc(-c2cc3cn(-c4ccc(CNCCCNC(=N)N)cc4)c(=O)nc3[nH]2)cc1OC(F)(F)F", "note": "[Compound 44]", "E. coli ATCC25922 MIC": "+ (a “+” indicates that the compound has an MIC value of 16 micrograms/ml or less)"},
      {"smiles": "COC(=O)NCCCCc1cc(-c2cc3cn(-c4ccc(CNCCCNC(=N)N)cc4)c(=O)nc3[nH]2)cc(OC(F)(F)F)c1OC", "note": "[Compound 45]", "E. coli ATCC25922 MIC": "+ (a “+” indicates that the compound has an MIC value of 16 micrograms/ml or less)"},
      {"smiles": "CC(C)c1cc(CCCCN)cc(-c2cc3cn(-c4ccc(CNCCCNC(=N)N)cc4)c(=O)nc3[nH]2)c1", "note": "[Compound 46]", "E. coli ATCC25922 MIC": "+ (a “+” indicates that the compound has an MIC value of 16 micrograms/ml or less)"},
      {"smiles": "NCCCCc1cc(OC(F)(F)F)cc(-c2cc3cn(-c4ccc(CNCCCN/C(N)=N\\CCCF)cc4)c(=O)nc3[nH]2)c1", "note": "[Compound 47]", "E. coli ATCC25922 MIC": "+ (a “+” indicates that the compound has an MIC value of 16 micrograms/ml or less)"},
      {"smiles": "CS(=O)(=O)Nc1cc(CCCCN)cc(-c2cc3cn(-c4ccc(CNCCCNC(=N)N)cc4)c(=O)nc3[nH]2)c1", "note": "[Compound 48]", "E. coli ATCC25922 MIC": "+ (a “+” indicates that the compound has an MIC value of 16 micrograms/ml or less)"},
      {"smiles": "N=C(N)NCCCNCc1ccc(-n2cc3cc(-c4cc(CCCCN)cc(NC(N)=O)c4)[nH]c3nc2=O)cc1", "note": "[Compound 49]", "E. coli ATCC25922 MIC": "+ (a “+” indicates that the compound has an MIC value of 16 micrograms/ml or less)"},
      {"smiles": "N=C(N)NCCCNCc1ccc(-n2cc3cc(-c4cc(CCCCN)ccc4OC(F)(F)F)[nH]c3nc2=O)cc1", "note": "[Compound 50]", "E. coli ATCC25922 MIC": "+ (a “+” indicates that the compound has an MIC value of 16 micrograms/ml or less)"},
      {"smiles": "N=C(N)NCCCNCc1ccc(-n2cc3cc(-c4cc(C(O)CCCN)ccc4Cl)[nH]c3nc2=O)cc1", "note": "(centres unmarked) [Compound 51]", "E. coli ATCC25922 MIC": "+ (a “+” indicates that the compound has an MIC value of 16 micrograms/ml or less)"},
      {"smiles": "N=C(N)NCCCNCc1c(F)cc(-n2cc3cc(-c4cc(CCCCN)cc(OC(F)(F)F)c4)[nH]c3nc2=O)cc1F", "note": "[Compound 52]", "E. coli ATCC25922 MIC": "+ (a “+” indicates that the compound has an MIC value of 16 micrograms/ml or less)"},
      {"smiles": "N=C(N)NCCCNCc1c(F)cc(-n2cc3cc(-c4cc(CCCCN)ccc4F)[nH]c3nc2=O)cc1F", "note": "[Compound 53]", "E. coli ATCC25922 MIC": "+ (a “+” indicates that the compound has an MIC value of 16 micrograms/ml or less)"},
      {"smiles": "N=C(N)NCCCNCc1ccc(-n2cc3cc(-c4cc(CCCCN)ccc4F)[nH]c3nc2=O)cc1F", "note": "[Compound 54]", "E. coli ATCC25922 MIC": "+ (a “+” indicates that the compound has an MIC value of 16 micrograms/ml or less)"},
      {"smiles": "N=C(N)NCCCNCc1ccc(-n2cc3cc(-c4cc(CCCCN)cc(-n5ccnn5)c4)[nH]c3nc2=O)cc1", "note": "[Compound 55]", "E. coli ATCC25922 MIC": "+ (a “+” indicates that the compound has an MIC value of 16 micrograms/ml or less)"},
      {"smiles": "N=C(N)NCCCCc1cc(-c2cc3cn(-c4ccc(CNCCCNC(=N)N)cc4)c(=O)nc3[nH]2)cc(-n2ccnn2)c1", "note": "[Compound 56]", "E. coli ATCC25922 MIC": "+ (a “+” indicates that the compound has an MIC value of 16 micrograms/ml or less)"},
      {"smiles": "Cc1ccc(CCCCN)cc1-c1cc2cn(-c3ccc(CNCCCNC(=N)N)cc3)c(=O)nc2[nH]1", "note": "[Compound 57]", "E. coli ATCC25922 MIC": "+ (a “+” indicates that the compound has an MIC value of 16 micrograms/ml or less)"},
      {"smiles": "N=C(N)NCCCNCc1ccc(-n2cc3cc(-c4cc(OC(F)(F)F)cc(C(F)CCCN)c4)[nH]c3nc2=O)cc1", "note": "(centres unmarked) [Compound 58]", "E. coli ATCC25922 MIC": "+ (a “+” indicates that the compound has an MIC value of 16 micrograms/ml or less)"},
      {"smiles": "N=C(N)NCCCNCc1ccc(-n2cc3cc(-c4cc(CCCCN)cc(-n5ccnc5)c4)[nH]c3nc2=O)cc1", "note": "[Compound 59]", "E. coli ATCC25922 MIC": "+ (a “+” indicates that the compound has an MIC value of 16 micrograms/ml or less)"},
      {"smiles": "N=C(N)NCCCNCc1ccc(-n2cc3cc(-c4cc(CCCO)cc(OC(F)(F)F)c4)[nH]c3nc2=O)cc1", "note": "[Compound 60]", "E. coli ATCC25922 MIC": "− (a “−” indicates that the compound has an MIC value greater than 16 micrograms/ml)"},
      {"smiles": "N=C(N)NCCCNCc1ccc(-n2cc3cc(-c4cc(CCCCN)cc(-c5cccnc5)c4)[nH]c3nc2=O)cc1", "note": "[Compound 61]", "E. coli ATCC25922 MIC": "+ (a “+” indicates that the compound has an MIC value of 16 micrograms/ml or less)"},
      {"smiles": "NCCCCc1cc(Cl)c(Cl)c(-c2cc3cn(-c4ccc(CNCCCN=C(N)N)cc4)c(=O)nc3[nH]2)c1", "note": "[Compound 62]", "E. coli ATCC25922 MIC": "+ (a “+” indicates that the compound has an MIC value of 16 micrograms/ml or less)"},
      {"smiles": "Cc1cc(CCCCN)cc(-c2cc3cn(-c4ccc(CNCCCN=C(N)N)cc4)c(=O)nc3[nH]2)c1Cl", "note": "[Compound 63]", "E. coli ATCC25922 MIC": "+ (a “+” indicates that the compound has an MIC value of 16 micrograms/ml or less)"},
      {"smiles": "NCCCCc1cc(-c2cc3cn(-c4ccc(CNCCCN=C(N)N)cc4)c(=O)nc3[nH]2)c(Cl)c(C(F)(F)F)c1", "note": "[Compound 64]", "E. coli ATCC25922 MIC": "+ (a “+” indicates that the compound has an MIC value of 16 micrograms/ml or less)"},
      {"smiles": "NCCCCc1cc(OC(F)(F)F)c(Cl)c(-c2cc3cn(-c4ccc(CNCCCN=C(N)N)cc4)c(=O)nc3[nH]2)c1", "note": "[Compound 65]", "E. coli ATCC25922 MIC": "+ (a “+” indicates that the compound has an MIC value of 16 micrograms/ml or less)"},
      {"smiles": "NC(N)=NCCCNCc1ccc(-n2cc3cc(-c4cccc(CCCO)c4)[nH]c3nc2=O)cc1", "note": "[Compound 66]", "E. coli ATCC25922 MIC": "− (a “−” indicates that the compound has an MIC value greater than 16 micrograms/ml)"},
      {"smiles": "C[C@H](NCCCNC(=N)N)c1ccc(-n2cc3cc(-c4cc(CCCCN)cc(F)c4Cl)[nH]c3nc2=O)cc1", "note": "[Compound 67]", "E. coli ATCC25922 MIC": "+ (a “+” indicates that the compound has an MIC value of 16 micrograms/ml or less)"},
      {"smiles": "NCCCCc1cc(SC(F)(F)F)cc(-c2cc3cn(-c4ccc(CNCCCN=C(N)N)c(F)c4)c(=O)nc3[nH]2)c1", "note": "[Compound 68]", "E. coli ATCC25922 MIC": "+ (a “+” indicates that the compound has an MIC value of 16 micrograms/ml or less)"},
      {"smiles": "C[C@H](NCCCNC(=N)N)c1ccc(-n2cc3cc(-c4cc(CCCCN)cc(SC(F)(F)F)c4)[nH]c3nc2=O)cc1", "note": "[Compound 69]", "E. coli ATCC25922 MIC": "+ (a “+” indicates that the compound has an MIC value of 16 micrograms/ml or less)"},
      {"smiles": "C[C@H](NCCCNC(=N)N)c1ccc(-n2cc3cc(-c4cc(COCCN)cc(OC(F)(F)F)c4)[nH]c3nc2=O)cc1", "note": "[Compound 70]", "E. coli ATCC25922 MIC": "+ (a “+” indicates that the compound has an MIC value of 16 micrograms/ml or less)"},
      {"smiles": "NCCCCc1cc(F)c(Cl)c(-c2cc3cn(-c4ccc(CNCCCN=C(N)N)c(F)c4)c(=O)nc3[nH]2)c1", "note": "[Compound 71]", "E. coli ATCC25922 MIC": "+ (a “+” indicates that the compound has an MIC value of 16 micrograms/ml or less)"},
      {"smiles": "Cc1cc(-c2cc3cn(-c4ccc(CNCCCN=C(N)N)cc4)c(=O)nc3[nH]2)cc(CCCCN)c1F", "note": "[Compound 73]", "E. coli ATCC25922 MIC": "+ (a “+” indicates that the compound has an MIC value of 16 micrograms/ml or less)"},
      {"smiles": "Cc1cc(-c2cc3cn(-c4ccc(CNCCCN=C(N)N)cc4)c(=O)nc3[nH]2)cc(CCCCNC(=N)N)c1F", "note": "[Compound 74]", "E. coli ATCC25922 MIC": "+ (a “+” indicates that the compound has an MIC value of 16 micrograms/ml or less)"},
      {"smiles": "NCCC[C@H](O)c1cc(OC(F)(F)F)cc(-c2cc3cn(-c4ccc(CNCCCN=C(N)N)cc4)c(=O)nc3[nH]2)c1", "note": "[Compound 75]", "E. coli ATCC25922 MIC": "+ (a “+” indicates that the compound has an MIC value of 16 micrograms/ml or less)"},
      {"smiles": "NCCC[C@@H](O)c1cc(OC(F)(F)F)cc(-c2cc3cn(-c4ccc(CNCCCN=C(N)N)cc4)c(=O)nc3[nH]2)c1", "note": "[Compound 76]", "E. coli ATCC25922 MIC": "+ (a “+” indicates that the compound has an MIC value of 16 micrograms/ml or less)"},
      {"smiles": "CC(C)c1cc(CCCCN)cc(-c2cc3cn(-c4ccc(CNCCCN=C(N)N)c(F)c4)c(=O)nc3[nH]2)c1", "note": "[Compound 77]", "E. coli ATCC25922 MIC": "+ (a “+” indicates that the compound has an MIC value of 16 micrograms/ml or less)"}
    ]}
  ]
}
